{"source": "patent US20260138949A1", "about": "“NOVEL COMPOUND AS PHOSPHOLIPASE D INHIBITOR AND USE THEREOF” (UIF (UNIVERSITY INDUSTRY FOUNDATION), YONSEI UNIVERSITY, priority 2022, published 2026)", "system": "phospholipase D1", "assay": "PLD activity in HCT116 cells ([3H]phosphatidylbutanol, TLC)", "assay_type": "cell-based, human", "conditions": "compound 10 μM, cells without the compound = 100%", "experimental": "To evaluate the inhibitory effect of the compounds according to the present invention on phospholipase D1 activity, experiments were conducted as follows.\nFor the analysis of PLD activity in cells, human colon cancer cell line (HCT116) was cultured in a 6-well plate at 37° C. for 24 hours, washed twice with phosphate-buffered saline (PBS), and then replaced with medium containing [^3H]myristate and cultured for 24 hours. After the culture, the cells were washed three times with PBS, treated with 1-butanol, and the drug was added to a final concentration of 10 μM. The cells were trypsinized and suspended, and the amount of [^3H]phosphatidylbutanol produced in the cell suspension was measured and evaluated for PLD activity using thin layer chromatography (TLC), and the results are shown in Table 1 below.\nThe Remaining activity % at 10 μM in Table 1 is calculated by setting the amount of [^3H]phosphatidylbutanol produced in cells without the compound as 100% and calculating the amount of [^3H]phosphatidylbutanol produced in cells treated with the compound as a percentage. Therefore, the lower the value of Remaining activity %, the higher the PLD inhibitory activity.", "data": [{"smiles": "O=C(Cc1c[nH]c2ccccc12)Nc1ccccc1F", "note": "[Example 1-12, N-(2-fluorophenyl)-2-(1H-indol-3-yl)acetamide]", "values": [{"measurement": "Remaining activity % at 10 μM", "value": "not active"}]}, {"smiles": "O=C(Cc1c[nH]c2ccccc12)Nc1ccc(Cl)c([N+](=O)[O-])c1", "note": "[Example 1-19, N-(4-chloro-3-nitrophenyl)-2-(1H-indol-3-yl)acetamide]", "values": [{"measurement": "Remaining activity % at 10 μM", "value": "not active"}]}, {"smiles": "O=C(Cc1c[nH]c2ccccc12)Nc1cc(F)cc(F)c1", "note": "[Example 1-18, N-(3,5-difluorophenyl)-2-(1H-indol-3-yl)acetamide]", "values": [{"measurement": "Remaining activity % at 10 μM", "value": 97.19, "unit": "%"}]}, {"smiles": "O=C(CCc1c[nH]c2ccccc12)Nc1ccccc1F", "note": "[Example 1-61, N-(2-fluorophenyl)-3-(1H-indol-3-yl)propanamide]", "values": [{"measurement": "Remaining activity % at 10 μM", "value": 45.47, "unit": "%"}]}, {"smiles": "O=C(Cc1c[nH]c2ccccc12)NCc1cccc(Cl)c1Cl", "note": "[Example 1-47, N-(2,3-dichlorobenzyl)-2-(1H-indol-3-yl)acetamide]", "values": [{"measurement": "Remaining activity % at 10 μM", "value": 62.96, "unit": "%"}]}, {"smiles": "COc1ccccc1NC(=O)Cc1c[nH]c2ccccc12", "note": "[Example 1-9, 2-(1H-indol-3-yl)-N-(2-methoxyphenyl)acetamide]", "values": [{"measurement": "Remaining activity % at 10 μM", "value": 80.82, "unit": "%"}]}, {"smiles": "O=C(CCCc1c[nH]c2ccccc12)NCc1ccc(Cl)c(Cl)c1", "note": "[Example 1-82, N-(3,4-dichlorobenzyl)-4-(1H-indol-3-yl)butanamide]", "values": [{"measurement": "Remaining activity % at 10 μM", "value": 94.09, "unit": "%"}]}, {"smiles": "COC(=O)c1ccc(NC(=O)Cc2c[nH]c3ccccc23)cc1", "note": "[Example 1-25, methyl 4-(2-(1H-indol-3-yl)acetamido)benzoate]", "values": [{"measurement": "Remaining activity % at 10 μM", "value": 66.73, "unit": "%"}]}, {"smiles": "COC(=O)c1ccc(CNC(=O)c2cc3ccccc3[nH]2)cc1", "note": "[Example 1-88, methyl 4-((1H-indole-2-carboxamido)methyl)benzoate]", "values": [{"measurement": "Remaining activity % at 10 μM", "value": 37.79, "unit": "%"}]}, {"smiles": "COc1ccc(COC(=O)CCCc2c[nH]c3ccccc23)cc1", "note": "[Example 1-117, 4-methoxybenzyl 4-(1H-indol-3-yl)butanoate]", "values": [{"measurement": "Remaining activity % at 10 μM", "value": 72.65, "unit": "%"}]}, {"smiles": "O=C(Cc1c[nH]c2ccccc12)Nc1cccc(F)c1", "note": "[Example 1-13, N-(3-fluorophenyl)-2-(1H-indol-3-yl)acetamide]", "values": [{"measurement": "Remaining activity % at 10 μM", "value": 30.28, "unit": "%"}]}, {"smiles": "O=C(Cc1c[nH]c2ccccc12)Nc1ccc(Cl)c(Cl)c1", "note": "[Example 1-20, N-(3,4-dichlorophenyl)-2-(1H-indol-3-yl)acetamide]", "values": [{"measurement": "Remaining activity % at 10 μM", "value": "not active"}]}, {"smiles": "O=C(Cc1c[nH]c2ccccc12)NNc1ccc(Br)cc1", "note": "[Example 1-55, N′-(4-bromophenyl)-2-(1H-indol-3-yl)acetohydrazide]", "values": [{"measurement": "Remaining activity % at 10 μM", "value": 77.89, "unit": "%"}]}, {"smiles": "O=C(Cc1c[nH]c2ccccc12)Nc1cccc(O)c1", "note": "[Example 1-8, N-(3-hydroxyphenyl)-2-(1H-indol-3-yl)acetamide]", "values": [{"measurement": "Remaining activity % at 10 μM", "value": 65.7, "unit": "%"}]}, {"smiles": "O=C(CCc1c[nH]c2ccccc12)Nc1ccc(F)cc1", "note": "[Example 1-63, N-(4-fluorophenyl)-3-(1H-indol-3-yl)propanamide]", "values": [{"measurement": "Remaining activity % at 10 μM", "value": "not active"}]}, {"smiles": "O=C(Cc1c[nH]c2ccccc12)Nc1ccc(F)cn1", "note": "[Example 1-22, N-(5-fluoropyridin-2-yl)-2-(1H-indol-3-yl)acetamide]", "values": [{"measurement": "Remaining activity % at 10 μM", "value": 66.5, "unit": "%"}]}, {"smiles": "O=C(Cc1c[nH]c2ccccc12)NCc1ccccc1F", "note": "[Example 1-35, N-(2-fluorobenzyl)-2-(1H-indol-3-yl)acetamide]", "values": [{"measurement": "Remaining activity % at 10 μM", "value": 83.61, "unit": "%"}]}, {"smiles": "O=C(Cc1c[nH]c2ccccc12)NNc1ccc(Cl)cc1", "note": "[Example 1-53, N′-(4-chlorophenyl)-2-(1H-indol-3-yl)acetohydrazide]", "values": [{"measurement": "Remaining activity % at 10 μM", "value": "not active"}]}, {"smiles": "O=C(Cc1c[nH]c2ccccc12)NCc1cccnc1", "note": "[Example 1-57, 2-(1H-indol-3-yl)-N-(pyridin-3-ylmethyl)acetamide]", "values": [{"measurement": "Remaining activity % at 10 μM", "value": "not active"}]}, {"smiles": "O=C(Nc1ccccc1F)c1cc2cc(F)ccc2[nH]1", "note": "[Example 1-97, 5-fluoro-N-(2-fluorophenyl)-1H-indole-2-carboxamide]", "values": [{"measurement": "Remaining activity % at 10 μM", "value": "not active"}]}, {"smiles": "Cn1c(C(=O)Nc2cc(C(F)(F)F)cc(C(F)(F)F)c2)cc2cc(F)c(F)cc21", "note": "[Example 1-114, N-(3,5-bis(trifluoromethyl)phenyl)-5,6-difluoro-1-methyl-1H-indole-2-carboxamide]", "values": [{"measurement": "Remaining activity % at 10 μM", "value": 48.24, "unit": "%"}]}, {"smiles": "O=C(Cc1c[nH]c2ccccc12)NCc1ccc(C(F)(F)F)cc1", "note": "[Example 1-43, 2-(1H-indol-3-yl)-N-(4-(trifluoromethyl)benzyl)acetamide]", "values": [{"measurement": "Remaining activity % at 10 μM", "value": 48.92, "unit": "%"}]}, {"smiles": "COc1ccc(CNC(=O)CCc2c[nH]c3ccccc23)cc1OC", "note": "[Example 1-73, N-(3,4-dimethoxybenzyl)-3-(1H-indol-3-yl)propanamide]", "values": [{"measurement": "Remaining activity % at 10 μM", "value": 95.81, "unit": "%"}]}, {"smiles": "O=C(O)c1ccc2[nH]c(C(=O)Nc3cc(C(F)(F)F)cc(C(F)(F)F)c3)cc2c1", "note": "[Example 1-101, 2-((3,5-bis(trifluoromethyl)phenyl)carbamoyl)-1H-indole-5-carboxylic acid]", "values": [{"measurement": "Remaining activity % at 10 μM", "value": 57.61, "unit": "%"}]}, {"smiles": "O=C(NCc1ccc(O)c(O)c1)c1cc2cc(F)ccc2[nH]1", "note": "[Example 1-111, N-(3,4-dihydroxybenzyl)-5-fluoro-1H-indole-2-carboxamide]", "values": [{"measurement": "Remaining activity % at 10 μM", "value": 54.41, "unit": "%"}]}, {"smiles": "O=C(Nc1cccc(C(F)(F)F)c1)c1cc2cc(F)ccc2[nH]1", "note": "[Example 1-95, 5-fluoro-N-(3-(trifluoromethyl)phenyl)-1H-indole-2-carboxamide]", "values": [{"measurement": "Remaining activity % at 10 μM", "value": 52.08, "unit": "%"}]}, {"smiles": "O=C(Nc1cc(C(F)(F)F)cc(C(F)(F)F)c1)c1cc2cc(C(F)(F)F)ccc2[nH]1", "note": "[Example 1-102, N-(3,5-bis(trifluoromethyl)phenyl)-5-(trifluoromethyl)-1H-indole-2-carboxamide]", "values": [{"measurement": "Remaining activity % at 10 μM", "value": 35.11, "unit": "%"}]}, {"smiles": "COC(=O)c1ccc(CNC(=O)CCCc2c[nH]c3ccccc23)cc1", "note": "[Example 1-80, methyl 4-((4-(1H-indol-3-yl)butanamido)methyl)benzoate]", "values": [{"measurement": "Remaining activity % at 10 μM", "value": 56.02, "unit": "%"}]}, {"smiles": "O=C(Cc1c[nH]c2ccccc12)Nc1ccccc1O", "note": "[Example 1-7, N-(2-hydroxyphenyl)-2-(1H-indol-3-yl)acetamide]", "values": [{"measurement": "Remaining activity % at 10 μM", "value": 65.03, "unit": "%"}]}, {"smiles": "COc1ccc(NC(=O)CCc2c[nH]c3ccccc23)cc1OC", "note": "[Example 1-70, N-(3,4-dimethoxyphenyl)-3-(1H-indol-3-yl)propanamide]", "values": [{"measurement": "Remaining activity % at 10 μM", "value": "not active"}]}, {"smiles": "O=C(Nc1ccc(Cl)c([N+](=O)[O-])c1)c1c[nH]c2ccccc12", "note": "[Example 1-1, N-(4-chloro-3-nitrophenyl)-1H-indole-3-carboxamide]", "values": [{"measurement": "Remaining activity % at 10 μM", "value": 86.43, "unit": "%"}]}, {"smiles": "O=C(Cc1c[nH]c2ccccc12)Nc1ccccc1Br", "note": "[Example 1-15, N-(2-bromophenyl)-2-(1H-indol-3-yl)acetamide]", "values": [{"measurement": "Remaining activity % at 10 μM", "value": 30.42, "unit": "%"}]}, {"smiles": "COc1ccc(CNC(=O)Cc2c[nH]c3ccccc23)cc1", "note": "[Example 1-39, 2-(1H-indol-3-yl)-N-(4-methoxybenzyl)acetamide]", "values": [{"measurement": "Remaining activity % at 10 μM", "value": 91.57, "unit": "%"}]}, {"smiles": "O=C(Cc1c[nH]c2ccccc12)Nc1cccc(Br)c1", "note": "[Example 1-16, N-(3-bromophenyl)-2-(1H-indol-3-yl)acetamide]", "values": [{"measurement": "Remaining activity % at 10 μM", "value": 97.25, "unit": "%"}]}, {"smiles": "O=C(Nc1cc(C(F)(F)F)cc(C(F)(F)F)c1)c1cc2cc(F)c(F)cc2[nH]1", "note": "[Example 1-113, N-(3,5-bis(trifluoromethyl)phenyl)-5,6-difluoro-1H-indole-2-carboxamide]", "values": [{"measurement": "Remaining activity % at 10 μM", "value": 42.48, "unit": "%"}]}, {"smiles": "O=C(CCc1c[nH]c2ccccc12)Nc1cc(F)cc(F)c1", "note": "[Example 1-66, N-(3,5-difluorophenyl)-3-(1H-indol-3-yl)propanamide]", "values": [{"measurement": "Remaining activity % at 10 μM", "value": 84.92, "unit": "%"}]}]}
